Assay results published in US11970474B2, “Substituted benzodiazoles and use thereof in therapy” (THOMAS HELLEDAYS STIFTELSE FÖR MEDICINSK FORSKNING, priority 2018, dated 2024).

Key:
Experiment in all cases: Cell viability assay (resazurin)
Format in all cases: cell-based
[1] = system: PL-21; settings: 120 h, Cancer, acute myeloid leukemia, five day incubation
Procedure: (§1) A dilution series of compound or vehicle are transferred to 96-well plates. Cells are seeded into the plate (500-10,000 cells/well) in suitable media and incubated for five days in 5% CO2 at 37° C. Thereafter, resazurin (diluted in suitable medium or PBS) are added to a final concentration 10 μg/ml resazurin at 37° C. for 2-4 hours before measuring the fluorescence (Ex544/Em590), essentially as described (Riss, Terry L. et al., “Cell Viability Assays.” In Assay Guidance Manual, ed. G. Sitta Sittampalam, et al. Bethesda (Md.): Eli Lilly & Company and the National Center for Advancing Translational Sciences (2004) http://www.ncbi.nlm.nih.gov/books/NBK144065/).
(§2) The compounds to be tested are nano-dispensed in duplicate in 11 concentrations, directly in 384-well cell plates, with a final DMSO concentration<1%. Cells are seeded in cell plates, pre-dispensed with compounds (200-2500 cells/well in 50 μl). After three or five days culture in 5% CO2, 37° C., resazurin diluted in PBS is added, 10 μl/well, to a final concentration of 10 μg/ml and cells are incubated 2-4 hours before measuring fluorescence (Ex544/Em590), as described (ibid.). Results obtained for selected example compounds described herein on cancer- and non-transformed cell lines are provided in the table below (Table 3) and summarized in FIG. 1. Where indicated, combination indexes was measured with CompuSyn software (www.compusyn.com) by the method of Chou-Talalay (Chou, Ting-Chao., Cancer Research, 70(2), 440-46 (2010)).

[2] = system: MOLT4; settings: Homo sapiens, MOLT-4, 120 h, Cancer, Acute Lymphoblastic Leukemia, five day incubation
Procedure: as §1, §2

[3] = system: BJ Ras; settings: 120 h, Cancer, Transformed fibroblast, five day incubation
Procedure: as §1, §2

[4] = system: PC3; settings: Homo sapiens, PC-3, 120 h, Cancer, Prostate adenocarcinoma, five day incubation
Procedure: as §1, §2

[5] = system: MRC5; settings: Homo sapiens, 120 h, Normal, fetal lung fibroblast, five day incubation
Procedure: as §1, §2

[6] = system: HeLa; settings: Homo sapiens, 120 h, Cancer, Cervical adenocarcinoma, five day incubation
Procedure: as §1, §2

[7] = system: 786-0; settings: Homo sapiens, 120 h, Cancer, Renal Cell Adenocarcinoma, five day incubation
Procedure: as §1, §2

[8] = system: Rec1; settings: Homo sapiens, 120 h, Cancer, Mantle Cell Lymphoma, five day incubation
Procedure: as §1, §2

[9] = system: T98G; settings: Homo sapiens, 120 h, Cancer, Glioblastoma Multiforme, five day incubation
Procedure: as §1, §2

[10] = system: Jurkat; settings: Homo sapiens, 120 h, Cancer, Acute lymphoblastic leukemia, five day incubation
Procedure: as §1, §2

[11] = system: Reh; settings: Homo sapiens, 120 h, Cancer, Acute Lymphocytic Leukemia, five day incubation
Procedure: as §1, §2

[12] = system: MV4-11; settings: Homo sapiens, 120 h, Cancer, acute monocytic leukemia, five day incubation
Procedure: as §1, §2

[13] = system: Raji; settings: Homo sapiens, 120 h, Cancer, Burkitt's Lymphoma, five day incubation
Procedure: as §1, §2

[14] = system: VH10; settings: 120 h, Normal, fibroblast, five day incubation
Procedure: as §1, §2

[15] = system: M059J; settings: Homo sapiens, 120 h, Cancer, Malignant Glioblastoma, five day incubation
Procedure: as §1, §2

[16] = system: H460; settings: Homo sapiens, NCI-H460, 120 h, Cancer, large cell lung carcinoma, five day incubation
Procedure: as §1, §2

[17] = system: UO31; settings: Homo sapiens, UO-31, 120 h, Cancer, Renal carcinoma, five day incubation
Procedure: as §1, §2

[18] = system: Daudi; settings: Homo sapiens, 120 h, Cancer, Burkitt's Lymphoma, five day incubation
Procedure: as §1, §2

[19] = system: SW480; settings: Homo sapiens, 120 h, Cancer, Colorectal Adenocarcinoma, five day incubation
Procedure: as §1, §2

[20] = system: HCT116 + Chr3; settings: Homo sapiens, HCT-116, 120 h, Cancer, Colorectal Carcinoma, five day incubation
Procedure: as §1, §2

[21] = system: BJ Tert; settings: 120 h, Normal, immortalized fibroblast, five day incubation
Procedure: as §1, §2

[22] = system: ACHN; settings: Homo sapiens, 120 h, Cancer, Renal Cell Adenocarcinoma, five day incubation
Procedure: as §1, §2

[23] = system: A549; settings: Homo sapiens, 120 h, Cancer, Lung carcinoma, five day incubation
Procedure: as §1, §2

[24] = system: DU145; settings: Homo sapiens, DU-145, 120 h, Cancer, Prostate carcinoma, five day incubation
Procedure: as §1, §2

[25] = system: HT-29; settings: Homo sapiens, 120 h, Cancer, Colorectal Adenocarcinoma, five day incubation
Procedure: as §1, §2

[26] = system: M059K; settings: 120 h, Cancer, Malignant Glioblastoma, five day incubation
Procedure: as §1, §2

[27] = system: CCRF-CEM; settings: Homo sapiens, 120 h, Cancer, Acute Lymphoblastic Leukemia, five day incubation
Procedure: as §1, §2

[28] = system: SaOS2; settings: Homo sapiens, SAOS-2, 120 h, Cancer, Osteosarcoma, five day incubation
Procedure: as §1, §2

[29] = system: HL-60; settings: Homo sapiens, 120 h, Cancer, Acute Promyelocytic Leukemia, five day incubation
Procedure: as §1, §2

[30] = system: A498; settings: Homo sapiens, 120 h, Cancer, Renal carcinoma, five day incubation
Procedure: as §1, §2

[31] = system: A3; settings: 120 h, Cancer, Acute lymphoblastic leukemia, five day incubation
Procedure: as §1, §2

[32] = system: LCL#2; settings: 120 h, Normal, Epstein-Barr-virus-transformed lymphoblastoid cell lines, five day incubation
Procedure: as §1, §2

Cc1cc(NC(=O)N2CCC(n3c(=O)[nH]c4c(Br)cccc43)CC2)ccc1I [Example 50, 4-(4-Bromo-2-oxo-2,3-dihydro-1H-1,3-benzodiazol-1-yl)-N-(4-iodo-3-methylphenyl)piperidine-1-carboxamide]
EC50 [1]: 18 µM | EC50 [2]: 17 µM | EC50 [3]: 14 µM | EC50 [4]: 29 µM | EC50 [5]: 47 µM | EC50 [6]: 35 µM | EC50 [7]: 33 µM | EC50 [8]: 15 µM | EC50 [9]: 17 µM | EC50 [10]: 15 µM | EC50 [11]: 17 µM | EC50 [12]: 9.6 µM | EC50 [13]: 23 µM | EC50 [14]: 48 µM | EC50 [15]: 29 µM | EC50 [16]: 17 µM | EC50 [17]: 3.2 µM | EC50 [18]: 12 µM | EC50 [19]: 30 µM | EC50 [20]: 20 µM | EC50 [21]: 31 µM | EC50 [22]: 2.8 µM | EC50 [23]: 8.5 µM | EC50 [24]: 3.1 µM | EC50 [25]: 22 µM | EC50 [26]: 27 µM | EC50 [27]: 7.9 µM | EC50 [28]: 20 µM | EC50 [29]: 24 µM | EC50 [30]: 35 µM | EC50 [31]: 9.8 µM | EC50 [32]: 32 µM

O=C(Nc1ccc(I)cc1)N1CCC(n2c(=O)[nH]c3c(Br)cccc32)CC1 [Example 13, 4-(4-Bromo-2-oxo-2,3-dihydro-1H-1,3-benzodiazol-1-yl)-N-(4-iodophenyl)piperidine-1-carboxamide]
EC50 [1]: 15 µM | EC50 [2]: 15 µM | EC50 [3]: 4.8 µM | EC50 [4]: 35 µM | EC50 [5]: 75 µM | EC50 [6]: 22 µM | EC50 [7]: 30 µM | EC50 [8]: 14 µM | EC50 [9]: 14 µM | EC50 [10]: 13 µM | EC50 [11]: 19 µM | EC50 [12]: 9.4 µM | EC50 [13]: 25 µM | EC50 [14]: 32 µM | EC50 [15]: 26 µM | EC50 [16]: 10 µM | EC50 [17]: 2.9 µM | EC50 [18]: 13 µM | EC50 [19]: 33 µM | EC50 [20]: 21 µM | EC50 [21]: 34 µM | EC50 [22]: 2.3 µM | EC50 [23]: 12 µM | EC50 [24]: 13 µM | EC50 [25]: 24 µM | EC50 [26]: 20 µM | EC50 [27]: 15 µM | EC50 [28]: 21 µM | EC50 [29]: 22 µM | EC50 [30]: 29 µM | EC50 [31]: 11 µM | EC50 [32]: 25 µM

O=C(Nc1ccc(Cl)c(Cl)c1)N1CCC(n2c(=O)[nH]c3c(-c4ccc(CO)nc4)cccc32)CC1 [Example 28, N-(3,4-dichlorophenyl)-4-{4-[6-(hydroxymethyl)pyridin-3-yl]-2-oxo-2,3-dihydro-1H-1,3-benzodiazol-1-yl}piperidine-1-carboxamide]
EC50 [1]: 10 µM | EC50 [2]: 13 µM | EC50 [3]: 15 µM | EC50 [4]: 19 µM | EC50 [5]: 21 µM | EC50 [6]: 16 µM | EC50 [7]: 15 µM | EC50 [8]: 13 µM | EC50 [9]: 19 µM | EC50 [10]: 14 µM | EC50 [11]: 15 µM | EC50 [12]: 6.5 µM | EC50 [13]: 20 µM | EC50 [14]: 21 µM | EC50 [15]: 21 µM | EC50 [16]: 14 µM | EC50 [17]: 7.1 µM | EC50 [18]: 10 µM | EC50 [19]: 20 µM | EC50 [20]: 17 µM | EC50 [21]: 24 µM | EC50 [22]: 8.5 µM | EC50 [23]: 11 µM | EC50 [24]: 11 µM | EC50 [25]: 23 µM | EC50 [26]: 19 µM | EC50 [27]: 11 µM | EC50 [28]: 16 µM | EC50 [29]: 14 µM | EC50 [30]: 21 µM | EC50 [31]: 7.9 µM | EC50 [32]: 41 µM
